Tests used:
Type in all cases: cell-based, human
Tumor sections = assay: FACS of CD3+/CD45+ lymphocytes for PD-1, CEACAM, LAG3, TIM3, OX40, ILDR2, 4-1-BB, GITR, tumor sections
Description: (§1) To further probe the phenotypic modulation mediated by treatment with Nivolumab, tumor sections or PBNCs from the same patient cultured for 3 days (72 hours) in the tumor microenvironment platform were treated with Nivolumab or IgG control for one day, followed by flow cytometry gating for lymphocytes based on their forward and side scatter properties. Lymphocytes were further gated for expression of both CD3 and CD45, and this population of cells was analyzed by FACS for expression of PD-1, CEACAM, LAG3, TIM3, OX40, ILDR2, 4-1-BB, and GITR.

PBNCs = assay: FACS of CD3+/CD45+ lymphocytes for PD-1, CEACAM, LAG3, TIM3, OX40, ILDR2, 4-1-BB, GITR, PBNCs
Description: as §1

CRC tumor tissue = assay: Granzyme B and Perforin secretion assays, CRC tumor sections in tumor microenvironment platform; details: 48 hours
Description: FIGS. 10A and 10B show quantification of results for Granzyme B and Perforin secretion assays for CRC tumor tissue cultured in the tumor microenvironment platform treated with Ipilimumab, Nivolumab, Ipilimumab+Nivolumab, FOLFIRI, or IgG control for 24 or 48 hours.
In another experiment, CRC tumor sections from the same patient cultured for 24 or 48 hours in the tumor microenvironment platform with Ipilimumab, Nivolumab, Ipilimumab+Nivolumab, FOLFIRI, or IgG as control were assayed for Granzyme B and Perforin secretion. Results are shown in FIG. 10A for the tumor microenvironment platform with tumor tissue from a predicted responder and FIG. 10B for the tumor microenvironment platform with tumor tissue from a predicted non-responder. After treatment with Nivolumab for 48 hours, there was an increase in Granzyme B secretion in the tumor microenvironment platform with tissue from the predicted responder compared to treatment with Ipilimumab or the control IgG. By contrast, at 48 hours in the tumor microenvironment platform with tissue from the predicted non-responder there was no increase in Granzyme B or Perforin secretion for treatment with Nivolumab.

[1] = platform containing tumor tissue, vs IgG control

Nivolumab
OX40 Tumor (% total cells) (Tumor sections; CD3+/CD45+ lymphocytes, treated one day, control 1.70): 0 % total cells
CEACAM Tumor (% total cells) (Tumor sections; CD3+/CD45+ lymphocytes, treated one day, control 2.04): 3.69 % total cells
LAG3 Tumor (% total cells) (Tumor sections; CD3+/CD45+ lymphocytes, treated one day, control 2.22): 0.52 % total cells
GITR Tumor (% total cells) (Tumor sections; CD3+/CD45+ lymphocytes, treated one day, control 2.60): 13.0 % total cells
4-1-BB Tumor (% total cells) (Tumor sections; CD3+/CD45+ lymphocytes, treated one day, control 4.69): 7.56 % total cells
TIM3 Tumor (% total cells) (Tumor sections; CD3+/CD45+ lymphocytes, treated one day, control 17.8): 19.9 % total cells
PD-1 Tumor (% total cells) (Tumor sections; CD3+/CD45+ lymphocytes, treated one day, control 19.4): 20.5 % total cells
ILDR2 Tumor (% total cells) (Tumor sections; CD3+/CD45+ lymphocytes, treated one day, control 24.4): 17.1 % total cells
number of GITR^+/CD3^+/CD45^+ lymphocytes (Tumor sections; [1]): increase
number of ILDR2^+/CD3^+/CD45^+ lymphocytes (Tumor sections; [1]): decrease
CEACAM PBMCs (% total cells) (PBNCs; CD3+/CD45+ lymphocytes, treated one day, control 0.12): 2.74 % total cells
LAG3 PBMCs (% total cells) (PBNCs; CD3+/CD45+ lymphocytes, treated one day, control 0.14): 0.031 % total cells
OX40 PBMCs (% total cells) (PBNCs; CD3+/CD45+ lymphocytes, treated one day, control 0.25): 0 % total cells
4-1-BB PBMCs (% total cells) (PBNCs; CD3+/CD45+ lymphocytes, treated one day, control 0.27): 0.38 % total cells
GITR PBMCs (% total cells) (PBNCs; CD3+/CD45+ lymphocytes, treated one day, control 0.30): 0.50 % total cells
ILDR2 PBMCs (% total cells) (PBNCs; CD3+/CD45+ lymphocytes, treated one day, control 1.96): 2.67 % total cells
PD-1 PBMCs (% total cells) (PBNCs; CD3+/CD45+ lymphocytes, treated one day, control 2.94): 0.31 % total cells
TIM3 PBMCs (% total cells) (PBNCs; CD3+/CD45+ lymphocytes, treated one day, control 7.91): 13.9 % total cells
ILDR2^+/CD3^+/CD45^+ and GITR^+/CD3^+/CD45^+ cell populations (PBNCs; platform containing only PBNCs, vs IgG control): No significant change
Granzyme B secretion (CRC tumor tissue; predicted non-responder): no increase
Perforin secretion (CRC tumor tissue; predicted non-responder): no increase
Granzyme B secretion (CRC tumor tissue; predicted responder, compared to Ipilimumab or control IgG): increase

From US20200333324A1, “METHOD OF PREDICTING CLINICAL OUTCOME OF ANTICANCER AGENTS” (MITRA RXDX, INC., priority 2017, published 2020)
